In EPA's ToxValDB 9.5:
Values joined by “and” are separate entries in the source; they are usually repeats but may differ in a detail not shown here. Equal values may be shown once.

Key:
Mus musculus = settings: for LD50 / LC50: acute; for LD50: oral
Rattus norvegicus [1] = settings: for LD50 / LC50: acute
Rattus norvegicus [2] = settings: for LOEL / NOEL: Hershberger, duration: 10 days, gavage
Rattus norvegicus [3] = settings: developmental; duration: 364 days; inhalation; whole body; M/F; CD; developmental
Rattus norvegicus [4] = settings: subchronic, oral
Rattus norvegicus [5] = settings: short-term
[6] = oral, Wistar, active + Negative + Antiandrogenic + anti-androgenic
[7] = oral, Sprague-Dawley, active + Antiandrogenic + anti-androgenic
[8] = duration: 3 days, injection, subcutaneous, F, Crj:CD, uterus: uterine dry weight (absolute) + uterus: uterine dry weight (relative) + uterus: uterine wet weight (absolute) + uterus: uterine wet …
[9] = duration: 28 days, oral, gavage, F, Crl:CD(SD), A/G ratio + phospholipid + triglyceride
[10] = duration: 28 days, oral, gavage, F, Crl:CD(SD), cholinesterase + inorganic phosphorus + kidney: abnormal kidney histopathological changes
[11] = duration: 28 days, oral, gavage, F, Crl:CD(SD), uterus: uterine dry weight (absolute) + uterus: uterine dry weight (relative) + uterus: uterine wet weight (absolute) + uterus: uterine wet …
[12] = duration: 28 days, oral, gavage, M, Crl:CD(SD), alanine aminotransferase + body weight + brain: brain weight + gamma-glutamyl transpeptidase + heart: heart weight + hematocrit + kidney: …
[13] = duration: 28 days, oral, gavage, M, Crl:CD(SD), heart: heart weight
[14] = uterotrophic, duration: 3 days, injection, subcutaneous, Active
[15] = uterotrophic, duration: 3 days, oral, Active
[16] = oral, Sprague-Dawley, active + Negative + Antiandrogenic + anti-androgenic + negative
[17] = chronic, duration: 14 weeks, inhalation, B6C3F1

Compound: CC(C)COC(=O)C(C)C [Isobutyl isobutyrate]
- LD50 (Mus musculus): > 6400 mg/kg
- LD50 (Rattus norvegicus [1]; oral): > 6400 mg/kg

Compound: CC(=O)S[C@@H]1CC2=CC(=O)CC[C@]2(C)[C@H]2CC[C@@]3(C)[C@@H](CC[C@@]34CCC(=O)O4)[C@H]12 [Spironolactone]
- LOEL (Rattus norvegicus [2]; [6]): 40 mg/kg-day
- NOEL (Rattus norvegicus [2]; [6]): 8 mg/kg-day

Compound: CCCCOCCOCCOCc1cc2c(cc1CCC)OCO2 [Piperonyl butoxide]
- NOEL (Rattus norvegicus [2]; oral, Sprague-Dawley, inactive + Negative + Negative + anti-androgenic + see note): 500 mg/kg-day

Compound: C1CO1 [Ethylene oxide]
- NOAEL (Rattus norvegicus [3]): 18 mg/m3

Compound: CCCCC(CC)COC(=O)c1ccccc1C(=O)O (centres undefined) [MEHP]
- LOEL (Rattus norvegicus [2]; [7]): 50 mg/kg-day
- NOEL (Rattus norvegicus [2]; [7]): 10 mg/kg-day

Compound: CC(C)OB(OC(C)C)OC(C)C [Triisopropyl orthoborate]
- LD50 (Mus musculus; Swiss): 2500 mg/kg
- LD50 (Rattus norvegicus [1]; oral, gavage): 8130 mg/kg

Compound: Oc1ccc(C2(c3ccc(O)cc3)CCCCC2)cc1 [Bisphenol Z]
- NOEL (Rattus norvegicus [4]; gavage, M, Sprague-Dawley, Clinical Observation: Diarrhea Soft feces + Body Weight Changes: decrease, R + Food Consumption: decrease + Urinalysis: Urine volume …): 20 mg/kg-day
- LOEL (Rattus norvegicus [5]; [8]): 30 mg/kg-day
- NOEL (Rattus norvegicus [5]; [8]): 6 mg/kg-day
- LOEL (Rattus norvegicus [5]; [9]): 100 mg/kg-day
- NOEL (Rattus norvegicus [5]; [9]): 30 mg/kg-day
- LOEL (Rattus norvegicus [5]; [10]): 300 mg/kg-day
- NOEL (Rattus norvegicus [5]; [10]): 100 mg/kg-day
- LOEL (Rattus norvegicus [5]; [11]): 30 mg/kg-day
- NOEL (Rattus norvegicus [5]; [11]): 6 mg/kg-day
- LOEL (Rattus norvegicus [5]; [12]): 300 mg/kg-day
- NOEL (Rattus norvegicus [5]; [12]): 100 mg/kg-day
- LOEL (Rattus norvegicus [5]; [13]): 100 mg/kg-day
- NOEL (Rattus norvegicus [5]; [13]): 30 mg/kg-day
- LOEL (Rattus norvegicus [5]; duration: 28 days, oral, gavage, M, Crl:CD(SD), thymus: serum T4): 30 mg/kg-day

Compound: Cc1c(O)ccc2c1CC[C@@H]1[C@@H]2CC[C@]2(C)[C@@H](O)CC[C@@H]12 [4-Methylestradiol]
- LEL (Rattus norvegicus [2]; [14]): 0.005 mg/day

Compound: C[C@H]1CCCC(=O)CCCCCc2cc(O)cc(O)c2C(=O)O1 [Zearalanone]
- LEL (Rattus norvegicus [2]; [15]): 0.18 mg/day

Compound: CCBr [Bromoethane]
- LC50 (Mus musculus; inhalation, B6C3F1): 12100 mg/m3
- LC50 (Mus musculus; inhalation, CF1): 72200 mg/m3
- NOAEL (Mus musculus; short-term, duration: 14 days, inhalation, B6C3F1): 2230 mg/m3
- LC50 (Rattus norvegicus [1]; inhalation, Fischer 344): 20900 mg/m3
- LC50 (Rattus norvegicus [1]; inhalation, Sprague-Dawley): 120000 mg/m3
- NOAEL (Rattus norvegicus [1]; chronic, duration: 14 weeks, inhalation, Fischer 344): 1780 mg/m3
- NOAEL (Rattus norvegicus [1]; short-term, duration: 14 days, inhalation, Fischer 344): 2230 mg/m3

Compound: CC(C)(C)c1ccc(O)cc1 [4-(1,1-Dimethylethyl)phenol]
- LOAEL (Rattus norvegicus [1]; short-term, duration: 14 days, oral, gavage, Crj:CD): 250 mg/kg-day
- LEL (Rattus norvegicus [2]; [14]): 100 mg/kg-day and 99.2 mg/kg-day

Compound: N#Cc1c(Cl)cccc1Cl [2,6-Dichlorobenzonitrile]
- LOEL (Rattus norvegicus [2]; [16]): 150 mg/kg-day
- NOEL (Rattus norvegicus [2]; [16]): 60 mg/kg-day

Compound: COc1ccc(C(=O)c2ccccc2)c(O)c1 [2-Hydroxy-4-methoxybenzophenone]
- NOEL (Rattus norvegicus [4]; diet, F, Fischer 344, Body Weight Changes: decrease + Food Consumption: decrease + Hematology: Hgb decrease, Plt increase + Blood Chemistry: gamma-GTP increase, …): < 196 mg/kg-day
- NOEL (Rattus norvegicus [4]; diet, M/F, Fischer 344, Body Weight Changes: decrease + Food Consumption: decrease + Hematology: Hgb decrease, Plt increase + Blood Chemistry: gamma-GTP increase, …): < 300 mg/kg-day
- LEL (Rattus norvegicus [2]; uterotrophic, duration: 4 days, oral, diet, Active): 1520 mg/kg-day

Compound: C[C@]12CC[C@H](O)CC1=CC[C@@H]1[C@@H]2CC[C@]2(C)C(=O)CC[C@@H]12 [Dehydroepiandrosterone]
- LEL (Rattus norvegicus [2]; [14]): 6 mg
- LEL (mg/100 g BW) (Rattus norvegicus [2]; [14]): 0.6
- LEL (Rattus norvegicus [2]; uterotrophic, duration: 21 days, Active): 1 mg/day
- LEL (Rattus norvegicus [2]; uterotrophic, duration: 28 days, oral, diet, Active): 2000 mg/kg-day
- LEL (Rattus norvegicus [2]; uterotrophic, duration: 36 days, injection, subcutaneous, Active): 30 mg/kg-day

Compound: C=CC=C [1,3-Butadiene]
- LOAEL (Mus musculus; [17]): 5530 mg/m3
- NOAEL (Mus musculus; [17]): 2770 mg/m3
- NOAEL (Mus musculus; reproduction developmental, duration: 5 days, inhalation, M, B6C3F1): 442 mg/m3
- NOAEL (Mus musculus; reproduction developmental, duration: 10 days, inhalation, CD1, generation: F1): 88.5 mg/m3
- LOAEL (Rattus norvegicus [1]; repeat dose other, inhalation, Sprague-Dawley): > 17700 mg/m3 and 17700 mg/m3
- NOAEL (Rattus norvegicus [1]; reproduction developmental, duration: 10 days, inhalation, Sprague-Dawley, generation: F1): 2210 mg/m3
- LOAEL (Rattus norvegicus [1]; reproduction developmental, inhalation, Sprague-Dawley): 3320 mg/m3
- NOAEL (Rattus norvegicus [1]; reproduction developmental, inhalation, Sprague-Dawley, generation: F0): 664 mg/m3

Compound: C[C@H]1CCC[C@H](O)CCC/C=C/c2cc(O)cc(O)c2C(=O)O1 [alpha-Zearalenol]
- LEL (Rattus norvegicus [2]; [15]): 0.01 mg/day
